Data set [1] deals with SARS-CoV-2. The following applies: Gassen et al. (2020); read-out: IC50 against SARS-CoV-2; cited from earlier work.
The conditions of data set [2]: cited from earlier work.
The conditions of data set [3]: rats, single oral dose 5 mg/kg, dissolved in DMSO/cremophor EL/water 3/15/82; cited from earlier work.
The target of the next data set is T1, TMEM16F/Anoctamin6 (Homo sapiens, UniProt Q4KMQ2).
T1 sequence (Q4KMQ2 1-910): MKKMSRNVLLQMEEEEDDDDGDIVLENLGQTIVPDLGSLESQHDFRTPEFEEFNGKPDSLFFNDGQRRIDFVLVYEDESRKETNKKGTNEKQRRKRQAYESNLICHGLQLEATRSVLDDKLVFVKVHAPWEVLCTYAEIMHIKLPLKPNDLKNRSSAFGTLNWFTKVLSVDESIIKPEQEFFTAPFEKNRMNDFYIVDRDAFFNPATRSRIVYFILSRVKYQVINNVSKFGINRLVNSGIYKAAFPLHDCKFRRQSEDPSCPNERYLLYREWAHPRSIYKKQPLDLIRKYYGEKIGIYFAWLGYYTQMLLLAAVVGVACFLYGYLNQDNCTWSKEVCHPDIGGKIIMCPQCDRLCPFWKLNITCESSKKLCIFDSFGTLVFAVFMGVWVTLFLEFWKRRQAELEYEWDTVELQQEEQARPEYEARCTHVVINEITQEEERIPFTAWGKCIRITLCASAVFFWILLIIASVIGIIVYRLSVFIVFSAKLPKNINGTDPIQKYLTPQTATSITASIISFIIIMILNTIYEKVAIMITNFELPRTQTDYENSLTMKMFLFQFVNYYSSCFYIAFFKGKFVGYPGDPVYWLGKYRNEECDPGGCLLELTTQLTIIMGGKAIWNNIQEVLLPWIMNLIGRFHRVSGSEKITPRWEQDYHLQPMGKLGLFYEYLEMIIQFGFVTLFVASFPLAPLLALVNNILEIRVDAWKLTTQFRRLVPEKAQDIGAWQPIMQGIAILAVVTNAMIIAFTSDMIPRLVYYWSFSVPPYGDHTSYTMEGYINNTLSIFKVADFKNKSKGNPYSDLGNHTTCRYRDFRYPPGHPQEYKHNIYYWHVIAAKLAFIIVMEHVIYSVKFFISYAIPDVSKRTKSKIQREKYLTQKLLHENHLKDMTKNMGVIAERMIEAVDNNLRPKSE
The following applies: Spike-expressing cells; cited from earlier work.

The test system of data set [4] is prostate cancer cell (PC-3). Briefly: Inhibitory efficacy against prostate cancer cell PC-3. The class given is cell-based. The following applies: estimated from dose-efficacy curve, FIG. 7.
Data set [5] deals with SARS-CoV-2. Briefly: microbe, parasite or virus in culture. Format: cell-based. To be noted: Severe acute respiratory syndrome coronavirus 2; Gassen et al. (2020); read-out: IC50 against SARS-CoV-2.
The conditions of data set [6]: phosphate buffer, depending on temperature of measurement; cited from earlier work.
Data set [7] concerns SARS-CoV-2. Briefly: Anti-SARS-CoV-2 efficacy in Vero cells (Jeon et al. 2020). The class given is cell-based. To be noted: Severe acute respiratory syndrome coronavirus 2, Vero; for IC90: read-out: IC90 against SARS-CoV-2.
The conditions of data set [8]: cited from earlier work. This is another data set of the same source.
Data set [9] in a line: Solubilization and dispersion of niclosamide by OHPP. The following applies: 2.5 mg/mL niclosamide in phosphate buffer.

The values that follow come from patent publication US20230293573A1 (priority 2020, published 2023).

≈ marks a conversion by molar mass, not a printed value. Read-outs that look alike come from different tables or passages of the source.

`O=C(Nc1ccc([N+](=O)[O-])cc1Cl)c1cc(Cl)ccc1O` [niclosamide, 2′,5-Dichloro-4′-nitrosalicylanilide]: the IC50 in the data set on SARS-CoV-2 [1] is 170 nM; in [4], 5.93 µg/mL (≈ 18.1 µM); with SARS-CoV-2 [5], 0.056 µg/mL (≈ 0.171 µM); in the data set with SARS-CoV-2 [7] (read-out: IC50 against SARS-CoV-2) it was 0.092 µg/mL (≈ 0.281 µM). Besides, the maximal plasma concentration in data set [2] (500 mg TID) was 35.7 to 182 ng/mL. In addition, the side effects entry in [2] (500 or 1000 mg TID oral, 4 weeks) was “mostly associated with the GI tract”. For the same molecule, the “maximal plasma concentration, highest level reached” value in data set [2] (500 or 1000 mg TID, 4 weeks) is on record as 182 ng/mL. For the same molecule, in data set [3], the “highest plasma concentration (Cmax)” value is 354 ± 152 ng/mL. Also, at TMEM16F/Anoctamin6, the “effect on calcium oscillations and membrane conductances through TMEM16F” value was “markedly blunted calcium oscillations and membrane conductances”. Moreover, the solubility in [6] was 0.3 to 1.14 µg/mL. The IC90 in the data set with SARS-CoV-2 [7] (read from FIG. 2 (Jeon et al. 2020)) is roughly 700 nM; in the data set on SARS-CoV-2 [7] it was roughly 0.229 µg/mL. The BCS solubility result in data set [8] is on record as “low solubility”. Further, the solubility definition result in data set [8] (delMoral-Sanchez et al., 2019) is given as “practically insoluble”. Also, the appearance of dispersion entry in [9] was “did not dissolve and showed heavy clouds and precipitates”.
